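Assay format: 96-well plates, 48-hour exposure. GI50 is the concentration that inhibits growth by half. TGI: concentration producing complete growth inhibition.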
What was measured:
Experiment in all cases: NCI anticancer screen, dose series, 48 h
MDA-MB-468 breast = test system: MDA-MB-468 breast
OVCAR-3 ovarian = test system: OVCAR-3 ovarian
RPMI-8226 leukemia = test system: RPMI-8226 leukemia
K-562 leukemia = test system: K-562 leukemia
MCF7 breast = test system: MCF7 breast
OVCAR-5 ovarian = test system: OVCAR-5 ovarian
ACHN renal = test system: ACHN renal
SK-MEL-2 melanoma = test system: SK-MEL-2 melanoma
NCI-H522 lung = test system: NCI-H522 lung
IGROV1 ovarian = test system: IGROV1 ovarian
HL-60(TB) leukemia = test system: HL-60(TB) leukemia
SW-620 colon = test system: SW-620 colon
MALME-3M melanoma = test system: MALME-3M melanoma
NCI-H23 lung = test system: NCI-H23 lung
MDA-MB-231 breast = test system: MDA-MB-231 breast
SK-OV-3 ovarian = test system: SK-OV-3 ovarian
SF-268 CNS = test system: SF-268 CNS
T-47D breast = test system: T-47D breast
HS 578T breast = test system: HS 578T breast
786-0 renal = test system: 786-0 renal
UACC-257 melanoma = test system: UACC-257 melanoma
HT29 colon = test system: HT29 colon
KM12 colon = test system: KM12 colon
A498 renal = test system: A498 renal
DU-145 prostate = test system: DU-145 prostate
EKVX NSCLC = test system: EKVX NSCLC
HOP-92 NSCLC = test system: HOP-92 NSCLC
CAKI-1 renal = test system: CAKI-1 renal
MDA-MB-435 = test system: MDA-MB-435
SK-MEL-28 melanoma = test system: SK-MEL-28 melanoma
RXF 393 renal = test system: RXF 393 renal
MOLT-4 leukemia = test system: MOLT-4 leukemia
HCT-15 colon = test system: HCT-15 colon
NCI-H460 lung = test system: NCI-H460 lung
COLO 205 colon = test system: COLO 205 colon
OVCAR-8 ovarian = test system: OVCAR-8 ovarian
HCC-2998 colon = test system: HCC-2998 colon
PC-3 prostate = test system: PC-3 prostate
UACC-62 melanoma = test system: UACC-62 melanoma
SF-295 CNS = test system: SF-295 CNS
U251 CNS = test system: U251 CNS
BT-549 breast = test system: BT-549 breast
SF-539 CNS = test system: SF-539 CNS
SN12C renal = test system: SN12C renal
NCI/ADR-RES ovarian = test system: NCI/ADR-RES ovarian
LOX IMVI melanoma = test system: LOX IMVI melanoma
M14 melanoma = test system: M14 melanoma
NCI-H226 lung = test system: NCI-H226 lung
HCT-116 colon = test system: HCT-116 colon
UO-31 renal = test system: UO-31 renal
SK-MEL-5 melanoma = test system: SK-MEL-5 melanoma
SNB-75 CNS = test system: SNB-75 CNS
A549 NSCLC = test system: A549 NSCLC
SNB-19 CNS = test system: SNB-19 CNS
CCRF-CEM leukemia = test system: CCRF-CEM leukemia
TK-10 renal = test system: TK-10 renal
OVCAR-4 ovarian = test system: OVCAR-4 ovarian

In the case of `COc1cccc(/C(C#N)=C/c2nc3c(N4CCOCC4)nc(Cl)nc3n2C)c1`, the GI50 (MDA-MB-468 breast) is reported as 0.497 µM and the TGI (MDA-MB-468 breast) is reported as 1.87 µM.

For `Cc1ncc(C(=O)Nc2ccc(CN3CCN(C)CC3)c(C(F)(F)F)c2)cc1C#Cc1cnc2cccnn12`, the GI50 (MDA-MB-468 breast) was 1.11 µM and the TGI (MDA-MB-468 breast) was 3.41 µM.

In the case of `COc1ccc(-c2ccncc2)cc1C(N)=O`, the GI50 (MDA-MB-468 breast) is reported as over 25 µM and the TGI (MDA-MB-468 breast) is reported as over 25 µM.

`CC(C)c1c(-c2ccccc2)nc2c(C#N)c[nH]n2c1=O` gave a GI50 (MDA-MB-468 breast) of 19.1 µM and a TGI (MDA-MB-468 breast) of 50.9 µM.

`CCOC(=O)Nc1nc2ccc(OC)cc2s1` was tested, and the GI50 (MDA-MB-468 breast) was 69.4 µM and the TGI (MDA-MB-468 breast) was over 100 µM.

Work on `COc1cc(F)c(F)c(Nc2ccc(I)cc2F)c1NS(=O)(=O)C1(C[C@H](O)CO)CC1` yielded a GI50 (MDA-MB-468 breast) of over 5.95 µM and a TGI (MDA-MB-468 breast) of over 10 µM.

`CCNc1cc(-c2cccc(OC(F)(F)F)c2)nc2ccc(N3CCCC3)cc12` gave a GI50 (MDA-MB-468 breast) of 1.4 µM and a TGI (MDA-MB-468 breast) of 3.35 µM.

For `O=C(/C=C/c1ccccc1)C(Br)C(Br)c1ccccc1` (configuration not stated), the GI50 (MDA-MB-468 breast) was 1.31 µM and the TGI (MDA-MB-468 breast) was 3.48 µM.

With `COc1ccc2c(=O)cc(-c3ccccc3)[nH]c2c1` the GI50 (MDA-MB-468 breast) was 0.887 µM and the TGI (MDA-MB-468 breast) was over 100 µM.

`CS(=O)(=O)CCNCc1cc(-c2cc3c(Nc4ccc(OCc5cccc(F)c5)c(Cl)c4)ncnc3s2)cs1` gave a GI50 (MDA-MB-468 breast) of 0.569 µM and a TGI (MDA-MB-468 breast) of 4.13 µM.

Compound `Cc1nc(-c2ccccc2)n2nc(NCCCN3CCOCC3)ncc12` has a GI50 (MDA-MB-468 breast) of over 5.33 µM and a TGI (MDA-MB-468 breast) of over 25 µM.

`CN(Cc1cnc2nc(N)nc(N)c2n1)c1ccc(C(=O)N[C@@H](CCC(=O)O)C(=O)O)cc1` showed a TGI (MDA-MB-468 breast) of over 250 µM.

Compound `COc1cc2nc(SCc3cc(OC)c(OC)c(OC)c3)n(Cc3ccccc3)c(=O)c2cc1OC` has a GI50 (MDA-MB-468 breast) of 0.307 µM and a TGI (MDA-MB-468 breast) of 1.91 µM.

`Nc1nonc1-c1nc2cnccc2n1C1CC1` showed a GI50 (MDA-MB-468 breast) of 1.96 µM and a TGI (MDA-MB-468 breast) of 10.1 µM.

`COc1ccc(-c2cs/c(=N\N=C\c3ccc(O)cc3O)n2/N=C/c2ccc(O)cc2O)cc1` gave a GI50 (MDA-MB-468 breast) of 1.96 µM and a TGI (MDA-MB-468 breast) of 5.68 µM.

In the case of `Cc1nc(N)nc2c1CCC(O)S2` (configuration not stated), the GI50 (MDA-MB-468 breast) is reported as 2.74 µM and the TGI (MDA-MB-468 breast) is reported as 13 µM.

In the case of `COc1cc2ncn(-c3cc(OCc4ccccc4C(F)(F)F)c(C(=O)N(C)C)s3)c2cc1OC`, the GI50 (MDA-MB-468 breast) is reported as 7.66 µM and the TGI (MDA-MB-468 breast) is reported as over 14.7 µM.

With `COc1ccc(NC(=O)CSc2nnc(-c3ccc(-c4nc5ccccc5[nH]4)cc3)o2)cc1` the GI50 (OVCAR-3 ovarian) was 2.29 µM, the TGI (OVCAR-3 ovarian) was 4.56 µM and the GI50 (RPMI-8226 leukemia) was 3.42 µM. The TGI (RPMI-8226 leukemia) was over 100 µM, the GI50 (K-562 leukemia) was 3.65 µM and the TGI (K-562 leukemia) was over 100 µM. It also gave a GI50 (MCF7 breast) of 2.35 µM, a TGI (MCF7 breast) of 6.4 µM and a GI50 (OVCAR-5 ovarian) of 2.28 µM. For the same compound, the TGI (OVCAR-5 ovarian) was 5.23 µM, the GI50 (ACHN renal) was 2.4 µM and the TGI (ACHN renal) was 5.86 µM. For the same compound, the GI50 (SK-MEL-2 melanoma) was 2.07 µM, the TGI (SK-MEL-2 melanoma) was 4.45 µM and the GI50 (NCI-H522 lung) was 1.72 µM. The TGI (NCI-H522 lung) was 3.4 µM, the GI50 (IGROV1 ovarian) was 2.17 µM and the TGI (IGROV1 ovarian) was 5.06 µM. For the same compound, the GI50 (HL-60(TB) leukemia) was 5.04 µM, the TGI (HL-60(TB) leukemia) was over 100 µM and the GI50 (SW-620 colon) was 2.34 µM. It also gave a TGI (SW-620 colon) of 6.39 µM, a GI50 (MALME-3M melanoma) of 1.69 µM and a TGI (MALME-3M melanoma) of 3.14 µM. The GI50 (NCI-H23 lung) was 1.93 µM, the TGI (NCI-H23 lung) was 3.84 µM and the GI50 (MDA-MB-231 breast) was 1.89 µM. The TGI (MDA-MB-231 breast) was 3.45 µM, the GI50 (SK-OV-3 ovarian) was 2.36 µM and the TGI (SK-OV-3 ovarian) was 4.94 µM. For the same compound, the GI50 (SF-268 CNS) was 2.02 µM, the TGI (SF-268 CNS) was 4.2 µM and the GI50 (T-47D breast) was 3.1 µM. It also gave a TGI (T-47D breast) of 9.51 µM, a GI50 (HS 578T breast) of 2.56 µM and a TGI (HS 578T breast) of 7.29 µM. The GI50 (786-0 renal) was 1.92 µM, the TGI (786-0 renal) was 3.63 µM and the GI50 (UACC-257 melanoma) was 1.92 µM. It also gave a TGI (UACC-257 melanoma) of 3.93 µM, a GI50 (MDA-MB-468 breast) of 2.51 µM and a TGI (MDA-MB-468 breast) of 6.44 µM. The GI50 (HT29 colon) was 1.82 µM, the TGI (HT29 colon) was 3.42 µM and the GI50 (KM12 colon) was 3.49 µM. For the same compound, the TGI (KM12 colon) was 13.3 µM, the GI50 (A498 renal) was 2.1 µM and the TGI (A498 renal) was 5.75 µM. For the same compound, the GI50 (DU-145 prostate) was 2.77 µM, the TGI (DU-145 prostate) was 7.62 µM and the GI50 (EKVX NSCLC) was 1.98 µM. For the same compound, the TGI (EKVX NSCLC) was 4.21 µM, the GI50 (HOP-92 NSCLC) was 1.77 µM and the TGI (HOP-92 NSCLC) was 3.79 µM. It also gave a GI50 (CAKI-1 renal) of 1.89 µM, a TGI (CAKI-1 renal) of 3.83 µM and a GI50 (MDA-MB-435) of 2.08 µM. For the same compound, the TGI (MDA-MB-435) was 4.55 µM, the GI50 (SK-MEL-28 melanoma) was 1.76 µM and the TGI (SK-MEL-28 melanoma) was 3.21 µM. It also gave a GI50 (RXF 393 renal) of 1.84 µM, a TGI (RXF 393 renal) of 3.56 µM and a GI50 (MOLT-4 leukemia) of 3.23 µM. For the same compound, the TGI (MOLT-4 leukemia) was over 100 µM, the GI50 (HCT-15 colon) was 2.3 µM and the TGI (HCT-15 colon) was 5.67 µM. It also gave a GI50 (NCI-H460 lung) of 2.01 µM, a TGI (NCI-H460 lung) of 4.32 µM and a GI50 (COLO 205 colon) of 4.51 µM. It also gave a TGI (COLO 205 colon) of 19.3 µM, a GI50 (OVCAR-8 ovarian) of 1.85 µM and a TGI (OVCAR-8 ovarian) of 3.66 µM. It also gave a GI50 (HCC-2998 colon) of 12.1 µM, a TGI (HCC-2998 colon) of 34.6 µM and a GI50 (PC-3 prostate) of 2.06 µM. The TGI (PC-3 prostate) was 3.96 µM, the GI50 (UACC-62 melanoma) was 1.63 µM and the TGI (UACC-62 melanoma) was 3.04 µM. For the same compound, the GI50 (SF-295 CNS) was 1.79 µM, the TGI (SF-295 CNS) was 3.34 µM and the GI50 (U251 CNS) was 1.83 µM. The TGI (U251 CNS) was 3.36 µM, the GI50 (BT-549 breast) was 1.94 µM and the TGI (BT-549 breast) was 4.09 µM. The GI50 (SF-539 CNS) was 1.79 µM, the TGI (SF-539 CNS) was 3.42 µM and the GI50 (SN12C renal) was 1.84 µM. The TGI (SN12C renal) was 3.59 µM, the GI50 (NCI/ADR-RES ovarian) was 9.32 µM and the TGI (NCI/ADR-RES ovarian) was over 100 µM. The GI50 (LOX IMVI melanoma) was 1.81 µM, the TGI (LOX IMVI melanoma) was 3.38 µM and the GI50 (M14 melanoma) was 2.3 µM. It also gave a TGI (M14 melanoma) of 5.27 µM, a GI50 (NCI-H226 lung) of 1.92 µM and a TGI (NCI-H226 lung) of 4.17 µM. It also gave a GI50 (HCT-116 colon) of 2.38 µM, a TGI (HCT-116 colon) of 5.9 µM and a GI50 (UO-31 renal) of 2.8 µM. It also gave a TGI (UO-31 renal) of 10.4 µM, a GI50 (SK-MEL-5 melanoma) of 1.91 µM and a TGI (SK-MEL-5 melanoma) of 3.94 µM. It also gave a GI50 (SNB-75 CNS) of 1.83 µM, a TGI (SNB-75 CNS) of 3.89 µM and a GI50 (A549 NSCLC) of 1.97 µM. The TGI (A549 NSCLC) was 4.22 µM, the GI50 (SNB-19 CNS) was 2.04 µM and the TGI (SNB-19 CNS) was 4.04 µM. For the same compound, the GI50 (CCRF-CEM leukemia) was 3.03 µM, the TGI (CCRF-CEM leukemia) was over 100 µM and the GI50 (TK-10 renal) was 3.09 µM. It also gave a TGI (TK-10 renal) of 10.8 µM, a GI50 (OVCAR-4 ovarian) of 2.5 µM and a TGI (OVCAR-4 ovarian) of 6.64 µM.
